Laboratory results from patent US11066414B2, “Cot modulators and methods of use thereof” (Gilead Sciences, Inc., priority 2015, dated 2021).
Like-named read-outs stand apart in the source and are kept apart here.

Legend:
TNFα = experiment: Cot Monocyte TNFα Cell Based Assay
Human Cot = Human Cot (Homo sapiens (Human), UniProt P41279); experiment: High Throughput Cot Biochemical Assay
[1] = Homo sapiens, Monocyte, read-out: EC50 TNF, LPS-stimulated human monocytes, TNFα TR-FRET
[2] = IC50 HTRF, Cot HTRF (TR-FRET KinEASE) biochemical assay, 400 μM ATP
[3] = Homo sapiens, Monocyte, read-out: EC50 TNF, LPS-stimulated human monocytes, TNFα
[4] = IC50 HTRF, Cot HTRF (TR-FRET) biochemical assay

Chain of Human Cot (P41279 30-397): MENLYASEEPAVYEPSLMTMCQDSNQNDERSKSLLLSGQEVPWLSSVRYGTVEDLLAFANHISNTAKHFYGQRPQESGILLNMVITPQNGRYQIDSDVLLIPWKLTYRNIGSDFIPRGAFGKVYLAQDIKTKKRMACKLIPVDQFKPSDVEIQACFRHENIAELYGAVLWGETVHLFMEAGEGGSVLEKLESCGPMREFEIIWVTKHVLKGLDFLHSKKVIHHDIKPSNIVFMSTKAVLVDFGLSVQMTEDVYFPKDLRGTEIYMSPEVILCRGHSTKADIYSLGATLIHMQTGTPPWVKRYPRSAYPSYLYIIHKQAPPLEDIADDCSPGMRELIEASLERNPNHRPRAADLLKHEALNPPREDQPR

SMILES | EC50 (TNFα; [3]) [nM] | IC50 (Human Cot; [4]) [nM] | also measured
[2H]c1c([C@@H](Nc2cc(Cl)c3ncc(C#N)c(NC([2H])([2H])C(C)(C)C)c3c2)c2ccc(F)nc2C)nnn1C1(C(F)F)CC1 [Example 973, (S)-8-chloro-6-(((1-(1-(difluoromethyl)cyclopropyl)-1H-1,2,3-triazol-4-yl-5-d)(6-fluoro-2-methylpyridin-3-yl)methyl)amino)-4-((2,2-dimethylpropyl-1,1-d2)amino)quinoline-3-carbonitrile] |  |  | EC50 (TNFα; [1]): 34 nM; IC50 (Human Cot; [2]): 3 nM
CCN1Cc2ccc([C@H](Nc3cc(Cl)c4ncc(C#N)c(Nc5ccc(F)c(Cl)c5)c4c3)c3c[nH]nn3)cc2C1 [Example 53, (S)-8-chloro-4-((3-chloro-4-fluorophenyl)amino)-6-(((2-ethylisoindolin-5-yl)(1H-1,2,3-triazol-4-yl)methyl)-amino)quinoline-3-carbonitrile] | 4020 | 81 | 
[2H]C(Nc1cc(Cl)c2ncc(C#N)c(NCC(C)(C)C)c2c1)(c1cn(C2CC2)nn1)c1cc(F)cnc1C (centres unmarked) [Example 114, 8-chloro-6-(((1-cyclopropyl-1H-1,2,3-triazol-4-yl)(5-fluoro-2-methylpyridin-3-yl)methyl-d)amino)-4-(neopentylamino)quinoline-3-carbonitrile] | 233 | 10 | 
CC[C@@H](Nc1c(C#N)cnc2c(Cl)cc(N[C@@H](c3cccnc3)c3cn([C@H]4[C@@H]5CNC[C@@H]54)nn3)cc12)c1ccccc1 [Example 180, 6-(((S)-(1-((• R,5S,6s)-3-azabicyclo[3.1 0]hexan-6-yl)-1H-1,2,3-triazol-4-yl)(pyridin-3-yl)methyl)amino)-8-chloro-4-(((R)-1-phenylpropyl)amino)-quinoline-3-carbonitrile] |  |  | EC50 (TNFα; read-out: EC50 TNF, LPS-stimulated human monocytes, TNFα): 104 nM; IC50 (Human Cot; read-out: IC50 HTRF, Cot HTRF (TR-FRET) biochemical assay): 1 nM
Cn1ccc2c([C@H](Nc3cc(Cl)c4ncc(C#N)c(NCC(C)(C)C)c4c3)c3cn(C4(C5CC5)CC4)nn3)cccc2c1=O [Example 779, (S)-6-(((1-([1,1′-bi(cyclopropan)]-1-yl)-1H-1,2,3-triazol-4-yl)(2-methyl-1-oxo-1,2-dihydroisoquinolin-5-yl)methyl)amino)-8-chloro-4-(neopentylamino)quinoline-3-carbonitrile] | 26 | 3 | 
Cc1ncccc1[C@H](Nc1cc(Cl)c2ncc(C#N)c(N[C@@H](CO)c3ccccc3)c2c1)c1c[nH]nn1 [Example 219, 8-chloro-4-(((R)-2-hydroxy-1-phenylethyl)amino)-6-(((S)-(2-methylpyridin-3-yl)(1H-1,2,3-triazol-4-yl)methyl)amino)quinoline-3-carbonitrile] | > 10000 | 4450 | 
Cc1n[nH]c2cccc([C@H](Nc3cc(C#N)c4ncc(C#N)c(NCC(C)(C)C)c4c3)c3cn(C4(C(F)(F)F)CC4)nn3)c12 [Example 528, (S)-6-(((3-methyl-1H-indazol-4-yl)(1-(1-(trifluoro-methyl)cyclopropyl)-1H-1,2,3-triazol-4-yl)methyl)amino)-4-(neopentylamino)quinoline-3,8-dicarbonitrile] | 60 | 3 | 
Cc1nc(F)ccc1[C@H](Nc1cc(Cl)c2ncc(C#N)c(NCC3(C(F)F)CC3)c2c1)c1cn(C2(C(F)(F)F)CC2)nn1 [Example 636, (S)-8-chloro-4-(((1-(difluoromethyl)cyclopropyl)-methyl)amino)-6-(((6-fluoro-2-methylpyridin-3-yl)(1-(1-(trifluoromethyl)cyclopropyl)-1H-1,2,3-triazol-4-yl)methyl)amino)quinoline-3-carbonitrile] | 720 | 69 | 
Cc1nc(F)ccc1[C@H](Nc1cc(Cl)c2ncc(C#N)c(NCC(C)(C)C)c2c1)c1cn(C23CC(C2)C3)nn1 [Example 646, (S)-6-(((1-(bicyclo[1.1.1]pentan-1-yl)-1H-1,2,3-triazol-4-yl)(6-fluoro-2-methylpyridin-3-yl)methyl)amino)-8-chloro-4-(neopentylamino)quinoline-3-carbonitrile] | 40 | 3 | 
Cn1cc([C@@H](Nc2cc(Cl)c3ncc(C#N)c(NCC(C)(C)C)c3c2)c2cccc3c(=O)n(C)ccc23)nn1 [Example 790, (S)-8-chloro-6-(((2-methyl-1-oxo-1,2-dihydroisoquinolin-5-yl)(1-methyl-1H-1,2,3-triazol-4-yl)methyl)amino)-4-(neopentylamino)quinoline-3-carbonitrile] | 82 | 5 | 
Cc1ncsc1[C@H](Nc1cc(C#N)c2ncc(C#N)c(NCC(C)(C)C)c2c1)c1cn(C2(C(F)(F)F)CC2)nn1 [Example 904, (R)-6-(((4-methylthiazol-5-yl)(1-(1-(trifluoromethyl)cyclopropyl)-1H-1,2,3-triazol-4-yl)methyl)amino)-4-(neopentylamino)quinoline-3,8-dicarbonitrile] |  |  | EC50 (TNFα; [1]): 78 nM; IC50 (Human Cot; [2]): 5 nM
Cc1nc(F)ccc1[C@H](Nc1cc(C#N)c2ncc(C#N)c(NCC(C)(C)C)c2c1)c1cn([C@@H](C)CF)nn1 [Example 623, 6-(((S)-(6-fluoro-2-methylpyridin-3-yl)(1-((S)-1-fluoropropan-2-yl)-1H-1,2,3-triazol-4-yl)methyl)amino)-4-(neopentylamino)quinoline-3,8-dicarbonitrile] | 27 | 1 | 
CC(C)(C)CNc1c(C#N)cnc2c(Cl)cc(N[C@@H](c3cccnc3)c3cn(C4COC4)nn3)cc12 [Example 168, (S)-8-chloro-4-(neopentylamino)-6-(((1-(oxetan-3-yl)-1H-1,2,3-triazol-4-yl)(pyridin-3-yl)methyl)amino)quinoline-3-carbonitrile] | 394 | 6 | 
CC(C)(C)CNc1c(C#N)cnc2c(Cl)cc(N[C@H](c3cn(C4CC4)nn3)c3cccc4ncccc34)cc12 [Example 437, (S)-8-chloro-6-(((1-cyclopropyl-1H-1,2,3-triazol-4-yl)(quinolin-5-yl)methyl)amino)-4-(neopentylamino)quinoline-3-carbonitrile] | 82 | 2 | 
COc1nccc2c([C@H](Nc3cc(C#N)c4ncc(C#N)c(NCC(C)(C)C)c4c3)c3cn(C(CF)CF)nn3)cccc12 [Example 825, (S)-6-(((1-(1,3-difluoropropan-2-yl)-1H-1,2,3-triazol-4-yl)(1-methoxylsoquinolin-5-yl)methyl)amino)-4-(neopentylamino)quinoline-3,8-dicarbonitrile] |  |  | EC50 (TNFα; read-out: EC50 TNF, LPS-stimulated human monocytes, TNFα TR-FRET): 113 nM; IC50 (Human Cot; read-out: IC50 HTRF, Cot HTRF (TR-FRET KinEASE) biochemical assay, 400 μM ATP): 7 nM
Cc1nc(F)ccc1[C@H](Nc1cc(Cl)c2ncc(C#N)c(NCC(C)(C)S(C)(=O)=O)c2c1)c1cn(C2(C(F)(F)F)CC2)nn1 [Example 722, (S)-8-chloro-6-(((6-fluoro-2-methylpyridin-3-yl)(1-(1-(trifluoromethyl)-cyclopropyl)-1H-1,2,3-triazol-4-yl)methyl)amino) -4-((2-methyl-2-(methylsulfonyl)propyl)amino)-quinoline-3-carbonitrile] | 403 | 43 | 
CC(C)n1cc([C@@H](Nc2cc(Cl)c3ncc(C#N)c(Nc4ccc(F)c(Cl)c4)c3c2)c2csc3c2CCNC3)nn1 [Example 346, (S)-8-chloro-4-((3-chloro-4-fluorophenyl)amino)-6-(((1-isopropyl-1H-1,2,3-triazol-4-yl)(4,5,6,7-tetrahydrothieno[2,3-c]pyridin-3-yl)methyl)amino)quinoline-3-carbonitrile] | 208 | 3 | 
Cn1ccc2c([C@H](Nc3cc(Cl)c4ncc(C#N)c(NCC(C)(C)C)c4c3)c3cn(C4(C(F)F)CC4)nn3)cccc2c1=O [Example 744, (S)-8-chloro-6-(((1-(1-(difluoromethyl)cyclopropyl)-1H-1,2,3-triazol-4-yl)(2-methyl-1-oxo-1,2-dihydroisoquinolin-5-yl)methyl)amino)-4-(neopentylamino)quinoline-3-carbonitrile] | 33 | 3 | 
Cc1nc(F)ccc1[C@H](Nc1cc(Cl)c2ncc(C#N)c(NCC(C)(C)CO)c2c1)c1cn(C2(C(F)(F)F)CC2)nn1 [Example 534, (S)-8-chloro-6-(((6-fluoro-2-methylpyridin-3-yl)(1-(1-(trifluoromethyl)cyclopropyl)-1H-1,2,3-triazol-4-yl)methyl)amino)-4-((3-hydroxy-2,2-dimethylpropyl)amino)-quinoline-3-carbonitrile] | 394 | 20 | 
Cc1nc(F)ccc1[C@H](Nc1cc(Cl)c2ncc(C#N)c(NCC(C)(C)C(F)(F)F)c2c1)c1cn(C2(C(F)F)CC2)nn1 [Example 727, (S)-8-chloro-6-(((1-(1-(difluoromethyl)cyclopropyl)-1H-1,2,3-triazol-4-yl)(6-fluoro-2-methylpyridin-3-yl)methyl)amino)-4-((3,3,3-trifluoro-2,2-dimethylpropyl)amino)quinoline-3-carbonitrile] | 48 | 3 | 
CC(C)(CNc1c(C#N)cnc2c(C#N)cc(N[C@H](c3cn(C4(C5CC5)CC4)nn3)c3cccc4ncccc34)cc12)C(F)(F)F [Example 896, (S)-6-(((1-([1,1′-bi(cyclopropan)]-1-yl)-1H-1,2,3-triazol-4-yl)(quinolin-5-yl)methyl)amino)-4-((3,3,3-trifluoro-2,2-dimethylpropyl)amino)quinoline-3,8-dicarbonitrile] |  |  | EC50 (TNFα; [1]): 30 nM; IC50 (Human Cot; [2]): 3 nM
Cc1ncccc1[C@H](Nc1cc(Cl)c2ncc(C#N)c(NCC(C)(C)C)c2c1)c1cn(C2CC2)nn1 [Example 131, (S)-8-chloro-6-(((1-cyclopropyl-1H-1,2,3-triazol-4-yl)(2-methylpyridin-3-yl)methyl)amino)-4-(neopentyl-amino)quinoline-3-carbonitrile] | 49 | 2 | 
